The source of these data is ChEMBL document CHEMBL1201862, “PubChem BioAssay data set” (2004).

What all share (test): NCI tumour cell line growth inhibition, 48 h
The subject of experiment [1] is DU-145.
Experiment [2] concerns HOP-92.
In experiment [3] the test system is HOP-62.
In experiment [4] the test system is MCF7.
In experiment [5] the test system is TK-10.
Experiment [6] has as its system UACC-257.
For experiment [7], the system named is ACHN.
For experiment [8], the system named is RPMI-8226.
The subject of experiment [9] is MDA-MB-435.
Experiment [10] has as its system SR.
The subject of experiment [11] is Hs-578T.
The subject of experiment [12] is SF-539.
The subject of experiment [13] is HCC 2998.
Experiment [14] has as its system SK-MEL-2.
In experiment [15] the test system is KM-20L2.
Experiment [16] relates to XF498.
In experiment [17] the test system is DMS-114.
Experiment [18] concerns M19-MEL.
Experiment [19] has as its system SNB-78.
In experiment [20] the test system is HOP-18.

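48-hour exposure; five concentrations; linearly interpolated endpoints. GI50: concentration for 50% inhibition of growth.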 The source made the active and inactive calls. No stated cut-off is given here; in the data, active = GI50 up to about 1.1 µM and inactive = higher. Some results are limits rather than exact numbers.

As to `C=CS(=O)(=O)c1c2cc(OC)ccc2nc2ccc(OC)cc12`, the GI50 in [1] was 3.53 µM (inactive); in experiment [2] it was 5.33 µM (inactive); in experiment [3], 14.8 µM (inactive); in experiment [4], 2.94 µM (inactive); in [5], 7.62 µM (inactive); in experiment [6] it was 7.53 µM (inactive). In addition, the GI50 was 3.35 µM (inactive) in experiment [7]; 2.37 µM (inactive) in experiment [8]; 5.58 µM (inactive) in experiment [9]; 2.32 µM (inactive) in experiment [10]; 2.97 µM (inactive) in experiment [11]; 2.51 µM (inactive) in experiment [12]. Moreover, the GI50 is 7.91 µM (inactive) in experiment [13] and 19 µM (inactive) in experiment [14].

In the case of `Clc1nc(Cl)nc(Nc2cccc3ccccc23)n1`, the GI50 in experiment [1], in experiment [3], in experiment [4], in [5], in experiment [7] and in experiment [8] was > 10 µM (inactive) each time. The GI50 in experiment [9], in experiment [10], in experiment [11], in [12], in [13] and in experiment [14] was > 10 µM (inactive) each time.

Turning to `C=CCOC1=C(OCC=C)C(C2COC(C)(C)O2)OC1=O` (centres undefined), the GI50 in [1] is > 100 µM (inactive); in [2], 14.8 µM (inactive); in [3], > 100 µM (inactive); in experiment [4], > 100 µM (inactive); in experiment [5], > 100 µM (inactive); in experiment [6], > 100 µM (inactive). Also, the GI50 in experiment [7] is > 100 µM (inactive); in experiment [8], 45.9 µM (inactive); in [9], > 100 µM (inactive); in experiment [10], 98.2 µM (inactive); in experiment [11], > 100 µM (inactive); in experiment [12], > 100 µM (inactive). In addition, the GI50 in experiment [13] and in experiment [14] was > 100 µM (inactive) in each case.

Turning to `Fc1ccc(C(OCCN2CCC3CCC(C2)N3Cc2cc3ccccc3[nH]2)c2ccc(F)cc2)cc1` (centres undefined), the GI50 in [1] was 1.85 µM (inactive); in experiment [2], 1.84 µM (inactive); in [3], 2.05 µM (inactive); in experiment [4], 1.79 µM (inactive); in experiment [5] it was 2.43 µM (inactive); in experiment [6] it was 1.95 µM (inactive). Further, the GI50 in [7] is 1.89 µM (inactive); in experiment [8], 1.42 µM (inactive); in experiment [9], 1.88 µM (inactive); in experiment [11], 1.88 µM (inactive); in experiment [12] it was 1.59 µM (inactive); in [13] it was 1.63 µM (inactive). For the same compound, the GI50 in [14] was 1.71 µM (inactive).

Consider `O=C1CCCCC[C@]12SC[C@H]1CON=C12`, for which the GI50 in [1] is 33.8 µM (inactive); in [2], 12.9 µM (inactive); in [4] it was 21.9 µM (inactive); in experiment [5] it was > 100 µM (inactive); in experiment [6], 78.2 µM (inactive); in experiment [7], 27.8 µM (inactive). Further, the GI50 in [8] is 27.2 µM (inactive); in experiment [9], 16.7 µM (inactive); in experiment [10], 9.42 µM (inactive); in [11], 59 µM (inactive); in [12] it was 41.3 µM (inactive); in experiment [13], 29.1 µM (inactive).

Regarding `CC(=O)NNc1nc(C)c(C(=O)NNC(=O)C(=O)Nc2cccc(C(C)=O)c2)s1`, the GI50 was 13.4 µM (inactive) in [2]; 25.3 µM (inactive) in experiment [3]; 59 µM (inactive) in [15]; 16.9 µM (inactive) in [5]; 23.1 µM (inactive) in experiment [6]; 16.9 µM (inactive) in experiment [7]. In addition, the GI50 in [16] was 16.4 µM (inactive); in experiment [17], 18.3 µM (inactive); in experiment [18], 19.9 µM (inactive); in experiment [8] it was 40.1 µM (inactive); in experiment [10], 18 µM (inactive); in [12] it was 18.7 µM (inactive). The values for the GI50 in experiment [13], in experiment [14] and in experiment [19] were 17.3 µM (inactive), 36.1 µM (inactive) and 75.3 µM (inactive), respectively.

As for `O=C1NCN(c2ccccc2)C12CCN(CCCN1CCN(CCOC(c3ccc(F)cc3)c3ccc(F)cc3)CC1)CC2`, the GI50 is 1.73 µM (inactive) in experiment [1]; 1.64 µM (inactive) in experiment [2]; 1.95 µM (inactive) in [3]; 1.92 µM (inactive) in experiment [4]; 1.75 µM (inactive) in [5]; 1.85 µM (inactive) in experiment [6]. Moreover, the GI50 in experiment [7] is 1.99 µM (inactive); in experiment [8], 2.04 µM (inactive); in experiment [9] it was 1.76 µM (inactive); in experiment [10] it was 2.36 µM (inactive); in experiment [11], 2.06 µM (inactive); in [12], 1.71 µM (inactive). Further, the GI50 in [13] was 1.51 µM (inactive); in [14], 1.96 µM (inactive).

With `CC1(C)C(=O)c2ccccc2OC1N1CCN(C2Oc3ccccc3C(=O)C2(C)C)CC1` (centres undefined), the GI50 in experiment [1], in experiment [2], in experiment [3], in experiment [4], in [5] and in experiment [7] was > 100 µM (inactive) each time. Further, the GI50 is > 100 µM (inactive) in [8]; > 100 µM (inactive) in experiment [9]; > 100 µM (inactive) in experiment [10]; 61.1 µM (inactive) in [11]; > 100 µM (inactive) in experiment [13].

As to `O=C1NCN(c2ccccc2)C12CCN(CCCSc1ccc(F)cc1)CC2`, the GI50 in experiment [1] was 11 µM (inactive); in experiment [2] it was 9.71 µM (inactive); in experiment [3] it was 25.5 µM (inactive); in experiment [4], 5.3 µM (inactive); in [5], 24.2 µM (inactive); in experiment [6] it was 2.92 µM (inactive). Besides, the GI50 in [7] was 19.7 µM (inactive); in experiment [8] it was 18.6 µM (inactive); in experiment [9], 12.8 µM (inactive); in experiment [10] it was 15.9 µM (inactive); in experiment [11], > 42.1 µM (inactive); in experiment [12], 17.3 µM (inactive). The GI50 in experiment [13] was 20.2 µM (inactive); in experiment [14], 15.1 µM (inactive).

`C=CCN(N=O)C(=O)N(CCC)CCCCC(NC(C)=O)C(=O)NCc1ccccc1` (centres undefined): the GI50 was 23.2 µM (inactive) in experiment [2]; > 100 µM (inactive) in [3]; 91.6 µM (inactive) in experiment [15]; > 100 µM (inactive) in experiment [5]; > 100 µM (inactive) in experiment [6]; > 100 µM (inactive) in [7]. For the same compound, the GI50 was > 100 µM (inactive) in experiment [16]; 59.2 µM (inactive) in experiment [17]; 56 µM (inactive) in experiment [18]; 26.9 µM (inactive) in experiment [8]; > 100 µM (inactive) in experiment [12]; > 100 µM (inactive) in experiment [20]. In addition, the GI50 in experiment [14] was > 100 µM (inactive).

Regarding `COC(=O)C1CCC(=O)N1C(=O)Cc1ccc(OC)cc1` (centres undefined), the GI50 in [2], in [15], in [5], in [6], in experiment [7] and in [16] was > 100 µM (inactive) in each case. Also, the GI50 in experiment [17], in experiment [18] and in [19] was > 100 µM (inactive) throughout.

For the compound `Nc1nc(N)c2c(n1)NC(=O)c1c(c3ccccc3n1Cc1ccc(Cl)cc1)C2`, the GI50 in experiment [1] was 14.4 µM (inactive); in experiment [2] it was 1.5 µM (inactive); in [3] it was 25.5 µM (inactive); in [4] it was 35.3 µM (inactive); in [5] it was 21.5 µM (inactive); in [6], 64.1 µM (inactive). In addition, the GI50 is 18.8 µM (inactive) in [9]; > 10 µM (inactive) in [10]; 24 µM (inactive) in experiment [11]; 23.9 µM (inactive) in [12]; 17.8 µM (inactive) in experiment [13]; 32.4 µM (inactive) in experiment [14].

Regarding `c1ccc(/N=C2\S/C(=N\C3CCCCC3)N(C3CCCCC3)\C2=N/c2ccccc2)cc1`, the GI50 in [1], in experiment [3], in experiment [4], in experiment [8], in experiment [9] and in experiment [10] was > 100 µM (inactive) throughout. In addition, the GI50 in experiment [11], in experiment [13] and in experiment [14] was > 100 µM (inactive) each time.

`c1ccc(COC2(OCc3ccccc3)CC3OC2C2NN=NC32)cc1` (centres undefined): the GI50 in experiment [2] was 19.6 µM (inactive); in experiment [3] it was 41.9 µM (inactive); in [15] it was 54.6 µM (inactive); in experiment [6], 18.5 µM (inactive); in experiment [7] it was > 100 µM (inactive); in experiment [16] it was 19.3 µM (inactive). For the same compound, the GI50 in experiment [18] was 17.7 µM (inactive); in experiment [8], 13.7 µM (inactive); in [12], 22.1 µM (inactive); in experiment [13], > 10 µM (inactive); in [20] it was 36.2 µM (inactive); in experiment [14] it was > 10 µM (inactive). Also, the GI50 in experiment [19] is 28.7 µM (inactive).

For `CC1(C)COC(/C=C/C2=NC(C)(C)CO2)=N1`, the GI50 in experiment [1] is 13 µM (inactive); in experiment [2] it was 25 µM (inactive); in experiment [3] it was 18.9 µM (inactive); in experiment [4] it was 15.9 µM (inactive); in experiment [5], 11.3 µM (inactive); in [6], 29.6 µM (inactive). The GI50 in [7] is 17.4 µM (inactive); in [8] it was 10 µM (inactive); in experiment [9], 23.7 µM (inactive); in [10], 4.44 µM (inactive); in [11], < 0.01 µM (active); in experiment [12] it was 22 µM (inactive). For the same compound, the GI50 in experiment [14] was 26.5 µM (inactive).

On to `COc1ccc(C2C(Cl)C(=O)N2NC(=O)c2ccccc2O)cc1` (centres undefined), for which the GI50 in experiment [2], in experiment [3], in experiment [15], in experiment [5], in experiment [6] and in [17] was > 100 µM (inactive) in each case. Moreover, the GI50 in experiment [18], in [8], in [10], in [12] and in experiment [14] was > 100 µM (inactive) in each case.
